“And” between values parts separate entries of the source, which are not always exact repeats. Equal entries are not always repeated.
Legend:
[1] = target: T1, PI3Kδ (Homo sapiens, UniProt O00329); test: KINOMEScan competitive binding assay, Kd
T1 construct: purchased Discoverex (KINOMEscan service)
Experimental: The inhibitor-kinase binding affinity was assessed in KINOMEscan™ assay (Discoverex) according to service provider’s protocol. In brief, in this binding assay the studied compound in solution is incubated with DNA-tagged kinase and kinase active-site directed ligand bound to the beads. The compound competes for binding to kinase with the immobilized ligand. After incubation beads are removed from the solution and kinase bound to ligand is quantified by qPCR. The strength of compound binding is determined based on its ability to block kinase-ligand binding. 11-point 3-fold serial dilution of CPL302-253 was used in order to determine its binding constants (Kd) against different isotypes of class I PI3K. The single concentration of CPL302-253 was used in order to determine its specificity in abroad panel of 468 human kinases. The measure of compounds affinity to each kinase in the panel was the percentage of kinase activity inhibition by tested ligand in comparison to the control.

[2] = system: CD19 B cells and PBMC stimulated with αIgM and TCR ligands; test: BioMAP profiling, BT system; type: cell-based, human
Experimental: (§1) BioMap Profiling study was performed by DiscovereX according to service provider’s protocol. In brief cultures or co-cultures of human primary cells were treated with sets of stimulators specific for cell subsets. […] The expression of biomarkers specific for each system was measured by ELISA and other techniques. The results are shown as log-transformed ratio of the biomarker readouts for the drug-treated sample to vehicle controls. The grey area parallel to the x-axis indicates the 95% significance region calculated based on historical vehicle controls. […]

[3] = system: co-culture of dermal fibroblasts and keratinocytes; test: BioMAP profiling, KF3CT system; type: cell-based, human
Experimental: BioMap Profiling study was performed by DiscovereX according to service provider’s protocol. In brief cultures or co-cultures of human primary cells were treated with sets of stimulators specific for cell subsets. […] The assays included positive and negative controls as well as vehicle control. The expression of biomarkers specific for each system was measured by ELISA and other techniques.

[4] = system: human primary cell cultures and co-cultures; type: cell-based
Experimental: as §1

[5] = system: GPCR, transporters, ion channels, nuclear receptors, kinases and non-kinase enzymes; test: SafetyScan44 panel, overall; type: cell-based; details: 10 μM; negative if not exceeding 70% of the control
Experimental: SafetyScan44 assay was performed by DiscoverX according to service provider’s protocol.

[6] = in vitro; type: cell-based; details: human
Experimental: (§2) The study was performed by Cyprotex according to service provider’s protocol. In brief NHBE cells were plated on 96-well plate. The cells were dosed with test compound at 0.0457, 0.137, 0.412, 1.24, 3.7, 11.1, 33.3, 100 μM and incubated for 48 h. The cells were loaded with dye or antibody relevant for each health marker and scanned using fluorescent cell imager. The following parameters were studied: cell count, nuclear size, DNA structure, mitochondrial mass, mitochondrial membrane potential, oxidative stress, glutathione content. The baseline for each parameter was determined based on vehicle control sample. The software calculates the percentage of cells that are low or high responders (depending on the biological significance of a particular readout). The vehicle control wells are then used to determine significance limits for wells that have a greater than expected fraction of low or high responders. The minimum effective concentration was determined from the lowest concentration whose mean value exceeds the significance level and provided either a clear dose-response relationship or at least two consecutive concentration points past the significance level.

[7] = system: Normal Human Bronchial Epithelial (NHBE) cells; test: in vitro; type: cell-based; details: 48 h
Experimental: as §2

[8] = system: A549 cells co-cultured with CD8 T cells; test: A549 CD8 T cell co-culture, IL-33 expression; type: cell-based, human; details: 1 μM, 72 h
Experimental: A549 cells were seeded into 48-well plate. CD8 T cells were isolated from frozen human PBMC using EasySep Human CD8 T cell Isolation Kit (StemCell Technologies) according to manufacturer’s protocol. A549 were co-cultured with CD8 T cells at 1 to 5 ratios for 72 h. In some cultures, CD8 cells were activated with Human T Cell Activation/Expansion Kit (Miltenyibiotec) according to manufacturer’s protocol. After 72h CD8 cells were removed by rinsing with PBS. Adherent A549 cells were suspended in 100 μl RIPA and IL-33 was assessed in cell lysates using IL-33 Human Uncoated ELISA Kit (Invitrogen). Due to high variability in cell activation the data were normalized (measure for each experimental condition was divided by average of measures for all experimental conditions in the experiment).

[9] = system: B cells; test: B lymphocyte activation assay; details: for CD25 expression (Fig 3A), single replicates / ki-67 expression (Fig 3B), single replicates: activated B cells
Experimental: B cells were isolated from human frozen PBMCs using EasySep Human CD19 Positive Isolation Kit (StemCell Technologies) according to manufacturers’ protocol. The cells were seeded in AIM V medium (Gibco). […] After 72 hours of culture the cells were stained with antibody againstCD25 (BC96, eBioscience) and ki-67 (Clone 20Raj1, Invitrogen) and analysed on FACSCalibur.

[10] = 72 h, concentration 1 (unit not given)
[11] = 72 h, concentration 10 (unit not given)
[12] = 72 h, concentration 100 (unit not given)
[13] = 72 h, concentration 1000 (unit not given)
[14] = 72 h, concentration 10000 (unit not given)

T1 sequence (O00329 whole entry): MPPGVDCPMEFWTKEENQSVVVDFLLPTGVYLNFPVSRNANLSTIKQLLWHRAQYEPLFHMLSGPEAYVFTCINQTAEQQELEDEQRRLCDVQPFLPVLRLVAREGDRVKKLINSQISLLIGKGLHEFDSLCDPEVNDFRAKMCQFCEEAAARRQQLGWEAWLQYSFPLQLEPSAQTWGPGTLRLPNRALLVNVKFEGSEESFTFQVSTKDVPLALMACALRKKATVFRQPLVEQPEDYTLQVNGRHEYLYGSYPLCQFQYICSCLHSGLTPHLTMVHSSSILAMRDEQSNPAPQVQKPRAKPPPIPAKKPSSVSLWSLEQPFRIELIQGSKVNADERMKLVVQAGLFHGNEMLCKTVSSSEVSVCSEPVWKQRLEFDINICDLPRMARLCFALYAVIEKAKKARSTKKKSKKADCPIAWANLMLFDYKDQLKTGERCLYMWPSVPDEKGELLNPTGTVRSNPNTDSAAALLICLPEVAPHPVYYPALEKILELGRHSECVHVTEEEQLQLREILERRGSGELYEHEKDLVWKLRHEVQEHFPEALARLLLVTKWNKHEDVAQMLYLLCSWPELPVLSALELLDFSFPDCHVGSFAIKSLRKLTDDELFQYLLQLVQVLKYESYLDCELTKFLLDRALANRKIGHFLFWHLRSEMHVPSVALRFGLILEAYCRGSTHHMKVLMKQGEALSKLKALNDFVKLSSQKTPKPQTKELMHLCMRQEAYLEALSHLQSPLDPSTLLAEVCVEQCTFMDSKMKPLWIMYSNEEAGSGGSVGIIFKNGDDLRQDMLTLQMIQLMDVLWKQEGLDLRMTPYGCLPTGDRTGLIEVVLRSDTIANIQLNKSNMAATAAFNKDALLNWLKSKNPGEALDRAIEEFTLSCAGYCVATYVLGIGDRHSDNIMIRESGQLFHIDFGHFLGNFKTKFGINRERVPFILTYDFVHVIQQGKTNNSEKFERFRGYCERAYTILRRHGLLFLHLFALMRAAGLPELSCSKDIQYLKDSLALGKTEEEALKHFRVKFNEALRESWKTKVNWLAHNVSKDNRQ

CC(C)(C)N1CCN(Cc2cc3nc(-c4cncc5[nH]ccc45)cc(N4CCOCC4)n3n2)CC1 [CPL302-253]
Kd [1]: 0.00085 µM
expression of IL-2, IL-6, IL-17 and TNFα in BT system [2]: inhibits the expression of all of listed markers in BT system
proliferation of B cells [2]: blocked proliferation of B cells
concentration inducing decrease of Plasminogen Activator Inhibitor-1 expression [3]: ≥ 150 nM
decrease of Plasminogen Activator Inhibitor-1 expression, effect size [3]: lower than 0.2 log10
cytotoxic effects in BioMap culture systems [4]: no cytotoxic effects observed
impact on other studied BioMAP systems ([4]; systems other than BT, except PAI-1 in KF3CT): no impact
inhibition or activation of the studied pathways in SafetyScan44 [5]: neither inhibits nor activates any of the studied pathways
AC50 at 48 h [6]: > 100 µM
AC50 [7]: > 100 µM
MEC Cell count [7]: 50.6 µM
MEC DNA structure [7]: 24.4 µM
MEC Glutathione content [7]: 10.6 µM
MEC Mitochondrial mass [7]: 20.8 µM
MEC Mitochondrial membrane potential [7]: 22.8 µM
MEC Nuclear size [7]: 75.3 µM
MEC Oxidative stress [7]: 16.1 µM
lowest concentration influencing any cell health parameter [7]: ≥ 10 µM
IL-33 expression, normalized (Fig 3D), single replicates ([8]; A549 CD8 A (activated CD8), divided by average of all conditions): 0.4059 and 0.7122 and 0.4707
IL-33 expression in co-cultures ([8]; A549 with activated CD8 cells): strong inhibition of IL-33 expression
B cell proliferation (ki-67 expression) ([9]; B cells activated with ODN2006 and αIgM F(ab')2, 72 h): blocked also B cell proliferation
concentration at which inhibition of CD25 expression was observed ([9]; B cells after BCR and TLR stimulation, 72 h): 10 nM
CD25 expression (Fig 3A), single replicates [9, 10]: 68 and 59 and 72 and 57
ki-67 expression (Fig 3B), single replicates [9, 10]: 46 and 43.4 and 77
CD25 expression (Fig 3A), single replicates [9, 11]: 52 and 60 and 66 and 49
ki-67 expression (Fig 3B), single replicates [9, 11]: 48 and 23.5 and 54
CD25 expression (Fig 3A), single replicates [9, 12]: 39 and 31 and 52 and 64 and 48
ki-67 expression (Fig 3B), single replicates [9, 12]: 29 and 16.5 and 35
CD25 expression (Fig 3A), single replicates [9, 13]: 9 and 22 and 24 and 38 and 20
ki-67 expression (Fig 3B), single replicates [9, 13]: 23 and 2.4 and 24
CD25 expression (Fig 3A), single replicates [9, 14]: 4 and 3 and 11 and 6
ki-67 expression (Fig 3B), single replicates [9, 14]: 5 and 1

Reference: PMC7377474, “Preclinical characterization of CPL302-253, a selective inhibitor of PI3Kδ, as the candidate for the inhalatory treatment and prevention of Asthma” (PLoS ONE, 2020)
